Reference: patent publication US20170266184A1 (priority 2016, published 2017)
Read-outs that look alike come from different tables or passages of the source.

Tests used:
5-HT-1A receptor [1] = biological target: T1, 5-HT-1A receptor (Rattus norvegicus, UniProt P19327); conditions: subcutaneous injection; cited from earlier work
T1 sequence (P19327 1-422): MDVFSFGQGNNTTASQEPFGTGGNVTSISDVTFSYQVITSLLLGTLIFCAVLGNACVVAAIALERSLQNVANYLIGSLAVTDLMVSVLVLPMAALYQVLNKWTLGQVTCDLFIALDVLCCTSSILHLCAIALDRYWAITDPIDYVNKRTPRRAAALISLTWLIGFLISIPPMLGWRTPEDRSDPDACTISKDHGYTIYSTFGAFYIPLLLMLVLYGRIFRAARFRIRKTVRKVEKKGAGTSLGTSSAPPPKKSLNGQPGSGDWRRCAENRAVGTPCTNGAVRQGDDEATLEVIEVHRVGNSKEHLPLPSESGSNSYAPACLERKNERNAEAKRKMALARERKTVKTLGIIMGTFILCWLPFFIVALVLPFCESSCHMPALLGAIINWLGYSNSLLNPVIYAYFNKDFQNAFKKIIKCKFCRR

5-HT-1A receptor [2] = biological target: T1, 5-HT-1A receptor; parameters: host or cells: rat, whole animal (in vivo); conditions: rats; cited from earlier work
rats [3] = conditions: buspirone and apomorphine co-administered to rats; cited from earlier work
rats [4] = test system: rats
Method: This phase started one day after pre-conditioning phase, animals were randomly assigned to six groups, each containing six animals: (i) buspirone 0 mg/kg+saline, (ii) buspirone 0 mg/kg+morphine, (iii) buspirone 1 mg/kg+saline, (iv) buspirone 1 mg/kg+morphine, (v) buspirone 2 mg/kg+saline and (vi) buspirone 2 mg/kg+morphine injected animals. Over next 12 days (day 1 to day 12) animals went through conditioning (one session per day) in which they were confined to either the horizontal or vertical stripe compartment by raising the respective guillotine door. On day 1, 3, 5, 7, 9 and 11 animals of all groups were injected with saline (1 ml/kg) and placed immediately in the assigned ‘Non-Drug’ compartment for 30 min. After which the animals were kept in their home cages. On every other day, i.e. day 2, 4, 6, 8, 10, and 12 control and test animals were injected with saline, buspirone and/or morphine as assigned above. Immediately after injection the animals were placed in the ‘Drug’ compartment for 30 min. The animals picked from the drug compartment were placed back in their home cages.
Motor behavior was also monitored during conditioning phase. Animals confined to a compartment were moving across the compartment. Activity scores were counted as number of cage crossings for 10 min starting 5 min post injection.

rats [5] = test system: rats; remark: listed apart in the source
Method: After post-conditioning the challenge dose of morphine (7.5 mg/kg) was given. The hot plate test was conducted 30 min after challenge dose to measure difference in heat-induced nociception in the six groups. The latency (either jumping or hind-paw licking) and number of licks were monitored for each animal. The temperature of hot plate was kept 52° C. and cutoff time was 30 sec.

rats [6] = assay: Conditioned place preference (CPP) test of drug-induced reinforcement; type: in vivo, rat
Method: A three compartment conditioned place preference (CPP) apparatus with an unbiased design was used to monitor drug-induced reinforcement. The apparatus was made up of transparent plastic Perspex. The compartments were separated by sliding guillotine doors.
The end (preference) compartments (26×26×26 cm each) provided distinct contexts, with one compartment having black horizontal stripes on side walls, the other compartment had vertical black stripes. […] The experiment was conducted in three distinct phases: pre-conditioning, conditioning and post-conditioning.
An animal introduced in the CPP apparatus from the middle compartment and guillotine doors were raised to open. The animal was allowed to explore the entire apparatus for 10 min. Time spent in each compartment was recorded.
The test was carried out on day 13, one day after the last conditioning session, in a drug free state. Each animal was tested only once. As in the pre-conditioning phase, the guillotine doors were removed and rat was given access to the entire apparatus for 10 min. Time spent in ‘Drug’ assigned compartment was monitored.

monkeys = conditions: cited from earlier work
humans = conditions: cited from earlier work
rhesus monkeys = conditions: fluoxetine with morphine; cited from earlier work
rats [7] = conditions: fluoxetine with morphine; cited from earlier work
[8] = all three doses of morphine vs saline treated animals, FIG. 3

CCCN(CCC)C1CCc2cccc(O)c2C1 (centres unmarked) [8-OH-DPAT, 8-hydroxy-N,N-dipropyl-2-aminotetralin]
Analgesic effect (5-HT-1A receptor [1]): produces an analgesic effect
Anti-nociceptive effects (5-HT-1A receptor [2]): has anti-nociceptive effects

O=C1CC2(CCCC2)CC(=O)N1CCCCN1CCN(c2ncccn2)CC1 [buspirone]
Addiction to apomorphine (rats [3]): not produced
Calculated percentage psychosis like effects of morphine (rats [4]; animals co-treated with buspirone): blocked
Psychosis like effects of morphine (rats [4]; co-administration of 1 mg/kg buspirone, FIG. 2B): blocked
Psychosis like effects of morphine (rats [4]; co-administration of 2 mg/kg buspirone, FIG. 2B): attenuated
Tolerance in motor depressant effects of morphine (rats [4]; co-treated with buspirone 1 mg/kg or 2 mg/kg, FIG. 2A): not produced
Analgesic effects of morphine (rats [5]; buspirone co-injected animals): potentiated
Morphine-induced increases in post-conditioning time spent in drug paired compartment (rats [6]; buspirone 1 mg or 2 mg/kg co-administered with morphine 7.5 mg/kg, FIG. 1A): significantly attenuates
Reinforcing effects of morphine (calculated percentage reinforcement) (rats [6]; buspirone 1 mg or 2 mg/kg co-administered with morphine 7.5 mg/kg, FIG. 1B): do not occur
Reduction of addiction to morphine (rats [6]; buspirone co-injected animals): more than 90%

CN(C)CCCN1c2ccccc2CCc2ccc(Cl)cc21 [clomipramine]
Anti-nociceptive effects of opioids (monkeys): enhances

CCNC(C)Cc1cccc(C(F)(F)F)c1 (centres unmarked) [fenfluramine]
Analgesic effects of morphine (humans): increase

CNCCC(Oc1ccc(C(F)(F)F)cc1)c1ccccc1 (centres unmarked) [fluoxetine]
Analgesic effects of morphine (humans): increase
Anti-nociceptive effects of morphine (rhesus monkeys): potentiates
Anti-nociceptive effects of morphine (rats [7]): potentiates

CN1CC[C@]23c4c5ccc(O)c4O[C@H]2[C@@H](O)C=C[C@H]3[C@H]1C5 [morphine]
Motor activity (rats [4]; 1st and 2nd injection of morphine, FIG. 2A): decrease
Decreases in motor activity (tolerance in motor depressant effect) (rats [4]; 3rd to 6th administration of morphine, day 6, 8, 10 and 12, FIG. 2A): do not occur
Psychosis like effects (rats [4]; morphine alone, FIG. 2B): produced psychosis like effects
Increase in latency time in paw licking, comparison of doses (rats [5]; 7.5 mg/kg vs 5 mg/kg morphine, FIG. 3): greater at 7.5 mg/kg than 5 mg/kg
Latency time in paw licking (rats [5]; [8]): increase
Number of licks (rats [5]; [8]): reduced
Latency time to first lick (rats [5]; repeated morphine treated animals, 30 min after 7.5 mg/kg morphine challenge, FIG. 4): reduced
Number of licks (rats [5]; repeated morphine treated animals, after morphine challenge, FIG. 4): higher
Post-conditioning time spent in the drug paired compartment (rats [6]; morphine 7.5 mg/kg alone, repeated, FIG. 1A): much higher
Calculated percentage reinforcement (rats [6]; morphine 7.5 mg/kg alone, FIG. 1B): reinforcing
